Read-outs that look alike come from different tables or passages of the source.
Tests used:
HeLa cells = experiment: Compound screen by flow cytometry: HeLa cell count as surrogate readout of cell viability (z-scoreHeLa); assay type: cell-based, human; details: for cell count rep 1 / z-scoreHeLa rep 1: replicate 1; for cell count rep 2 / z-scoreHeLa rep 2: replicate 2; for cell count rep 3 / z-scoreHeLa rep 3: replicate 3; for z-scoreHeLa mean: mean of 3 replicates
Procedure, shortened: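 The viability surrogate was the count of fixed HeLa cells by flow cytometry, converted to z-scores against DMSO controls with values deviating two-fold excluded. Before counting, cells had been infected with MRSA for 1 h and cleared of extracellular bacteria with gentamicin. They were then exposed overnight to kinase inhibitors in triplicate.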

intracellular MRSA = assay type: cell-based, Staphylococcus aureus; details: for %GFP+ rep 1 / z-scoreMRSA+ rep 1: replicate 1; for %GFP+ rep 2 / z-scoreMRSA+ rep 2: replicate 2; for %GFP+ rep 3 / z-scoreMRSA+ rep 3: replicate 3; for z-scoreMRSA+ mean: mean of 3 replicates
Procedure, shortened: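 HeLa cells were infected with GFP-expressing MRSA (mean MOI 6.8) for 1 h, treated with 30 µg/ml gentamicin for 15 min, then incubated overnight at 37°C with kinase inhibitors and 5 µg/ml gentamicin. Flow cytometry gave % GFP-positive cells, with cell count as viability. Hits were z-score ≤ -2 (infection) and ≥ -3 (count) versus DMSO.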

[1] = PKIS compound screen raw data, HeLa cell count
[2] = PKIS compound screen, HeLa cell count
[3] = PKIS compound screen raw data, MRSA-infected HeLa cells
[4] = PKIS compound screen, MRSA-infected HeLa cells
[5] = PKIS compound screen, Yes/No call (effect without cell death)
[6] = PKIS compound screen, Yes/No call
[7] = PKIS compounds raw data, HeLa cell count
[8] = PKIS compounds raw data, MRSA-infected HeLa cells
[9] = compound screen, HeLa cell count
[10] = Yes/No: effect without cell death
[11] = compound screen, MRSA-infected HeLa cells

Row | SMILES | cell count rep 1 (HeLa cells; [1]) | cell count rep 2 (HeLa cells; [1]) | cell count rep 3 (HeLa cells; [1]) | %GFP+ rep 1 (intracellular MRSA; [3]) | %GFP+ rep 2 (intracellular MRSA; [3]) | %GFP+ rep 3 (intracellular MRSA; [3]) | cell count rep 1 (HeLa cells; [7]) | cell count rep 2 (HeLa cells; [7]) | cell count rep 3 (HeLa cells; [7]) | cell death (HeLa cells; Yes/No call from z-scoreHeLa) | z-scoreHeLa mean (HeLa cells; [9]) | z-scoreHeLa rep 1 (HeLa cells; [9]) | z-scoreHeLa rep 2 (HeLa cells; [9]) | z-scoreHeLa rep 3 (HeLa cells; [9]) | effect (intracellular MRSA; Yes/No call from z-scoreMRSA+) | hit (intracellular MRSA; [10]) | z-scoreMRSA+ mean (intracellular MRSA; [11]) | z-scoreMRSA+ rep 1 (intracellular MRSA; [11]) | z-scoreMRSA+ rep 2 (intracellular MRSA; [11]) | z-scoreMRSA+ rep 3 (intracellular MRSA; [11]) | further results
1 | COc1cc(Nc2nccc(N3CCC(NC(=O)Nc4cccc(C(C)=O)c4)C3)n2)cc(OC)c1OC (stereo not drawn) [GSK1379753A] | 28035 | 28667 | 17453 | 19.3% | 19.5% | 18.4% |  |  |  |  |  |  |  |  |  |  |  |  |  |  | z-scoreHeLa mean (HeLa cells; [2]): -0.0237; z-scoreHeLa rep 1 (HeLa cells; [2]): -0.37; z-scoreHeLa rep 2 (HeLa cells; [2]): 0.58; z-scoreHeLa rep 3 (HeLa cells; [2]): -0.29; cell death (HeLa cells; PKIS compound screen, Yes/No call on z-scoreHeLa): No; z-scoreMRSA+ mean (intracellular MRSA; [4]): -0.20; z-scoreMRSA+ rep 1 (intracellular MRSA; [4]): 0.14; z-scoreMRSA+ rep 2 (intracellular MRSA; [4]): 0.025; z-scoreMRSA+ rep 3 (intracellular MRSA; [4]): -0.77; hit (intracellular MRSA; [5]): No; effect (intracellular MRSA; PKIS compound screen, Yes/No call on z-scoreMRSA+): No
2 | COc1cc(/C=N/Nc2ncnc3[nH]ncc23)ccc1O [GW578748X] |  |  |  |  |  |  | 4206 | 5592 | 7495 |  |  |  |  |  |  |  |  |  |  |  | cell death (HeLa cells; [6]): No; z-scoreHeLa mean (HeLa cells; PKIS compound screen): 0.25; z-scoreHeLa rep 1 (HeLa cells; PKIS compound screen): -0.52; z-scoreHeLa rep 2 (HeLa cells; PKIS compound screen): 1.00; z-scoreHeLa rep 3 (HeLa cells; PKIS compound screen): 0.26; effect (intracellular MRSA; [6]): No; hit (intracellular MRSA; [5]): No; z-scoreMRSA+ mean (intracellular MRSA; PKIS compound screen): -1.18; z-scoreMRSA+ rep 1 (intracellular MRSA; PKIS compound screen): -0.92; z-scoreMRSA+ rep 2 (intracellular MRSA; PKIS compound screen): -1.14; z-scoreMRSA+ rep 3 (intracellular MRSA; PKIS compound screen): -1.48; %GFP+ rep 1 (intracellular MRSA; [8]): 10.3%; %GFP+ rep 2 (intracellular MRSA; [8]): 10.1%; %GFP+ rep 3 (intracellular MRSA; [8]): 10.9%
3 | COC(=O)Nc1nc2ccc(Oc3ccc(NC(=O)Nc4cc(C(F)(F)F)ccc4Cl)cc3)cc2[nH]1 [GW697465A] | 4644 | 3894 | 5423 | 23.4% | 20.2% | 19.7% |  |  |  | No | 0.00465 | 0.21 | -0.31 | 0.12 | No | No | -0.59 | -0.44 | -0.59 | -0.75 | 
4 | CN(C)CCOc1ccc(-c2cc(-c3ccc(Cl)c(O)c3)c(-c3ccncc3)[nH]2)cc1.Cl.Cl [SB-684387-B] | 7005 | 6368 | 7752 | 13.0% | 10.9% | 11.1% |  |  |  | No | 1.70 | 1.91 | 1.59 | 1.59 | Yes | Yes | -3.01 | -2.86 | -2.84 | -3.32 | 
5 | O=S(=O)(c1cccc(F)c1)c1ccc(Nc2ncnc3cc(Br)sc23)cc1Cl [GSK306886A] |  |  |  |  |  |  | 2697 | 1761 | 5093 | No | -1.56 | -1.88 | -1.89 | -0.89 | No | No | -0.25 | 0.00934 | 0.10 | -0.85 | %GFP+ rep 1 (intracellular MRSA; [8]): 13.2%; %GFP+ rep 2 (intracellular MRSA; [8]): 13.8%; %GFP+ rep 3 (intracellular MRSA; [8]): 13.0%
6 | Cc1nnc(-c2ccc(C)c(-c3ccc(C(=O)Nc4ccc(NS(C)(=O)=O)cc4)cc3)c2)o1 [GW702865X] |  |  |  |  |  |  | 4074 | 4158 | 6358 | No | -0.34 | -0.64 | -0.08 | -0.29 | No | No | 0.42 | 0.75 | 0.77 | -0.26 | %GFP+ rep 1 (intracellular MRSA; [8]): 15.5%; %GFP+ rep 2 (intracellular MRSA; [8]): 15.8%; %GFP+ rep 3 (intracellular MRSA; [8]): 15.0%

— article PMC10999543, “Identification of kinase modulators as host-directed therapeutics against intracellular methicillin-resistant Staphylococcus aureus” (Frontiers in Cellular and Infection Microbiology, 2024)
